Measurements: publication PMC5597121, “The human bitter taste receptor T2R38 is broadly tuned for bacterial compounds” (PLoS ONE, 2017)
Numbering of substitutions follows the chain as printed. Where “and” joins values, the source holds several entries; their conditions need not be identical. Equal values may be shown once. Read-outs that look alike come from different tables or passages of the source.

Key:
T2R38 = biological target: T1, T2R38 (Homo sapiens, UniProt P59533, A49P/I296V); assay: Single cell calcium imaging, Peakrapid cells (Gα16gustducin44) transiently transfected with T2R38; format: cell-based; conditions: for response of T2R38 PAV transfected cells (S7_fig raw data): individual values of experiments 1-5; for specific activation of T2R38: ethanol-solubilized; for response of T2R38: solubilized in the aqueous buffer, 2 mM
T1 construct: leader: first 45 amino acids of rat somatostatin receptor subtype 3 (SSTR3) (N); expressed in transfected cells; host or cells: Peakrapid cells (HEK293 derivative, ATCC CRL-2828) stably expressing Galpha16gustducin44, co-transfected with human RTP4
T1 sequence (P59533 1-333 A49P/I296V): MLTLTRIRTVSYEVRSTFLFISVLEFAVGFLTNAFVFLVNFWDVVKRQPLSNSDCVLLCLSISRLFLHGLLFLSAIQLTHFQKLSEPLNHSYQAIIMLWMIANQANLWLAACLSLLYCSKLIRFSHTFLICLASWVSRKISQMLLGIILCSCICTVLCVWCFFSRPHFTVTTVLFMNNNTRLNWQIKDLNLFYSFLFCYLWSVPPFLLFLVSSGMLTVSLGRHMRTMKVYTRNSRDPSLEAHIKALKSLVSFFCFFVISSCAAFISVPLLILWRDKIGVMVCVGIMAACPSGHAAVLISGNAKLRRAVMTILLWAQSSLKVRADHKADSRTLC
Source text: (§1) The coding sequences of either the functional (PAV, GenBank accession number AY258597.1) and non-functional (AVI, GenBank accession number AF494231.1) were amplified from human genomic DNA by polymerase chain reaction.
These coding sequences were cloned in a pEFIB backbone vector in translational fusion with the coding sequence of a leader sequence corresponding to the 45 first amino acids of the rat somatostatin receptor subtype 3 [20]. The constructs were verified by sequencing. The coding sequence of RTP4 (Genbank accession number AY562238.1) was amplified from human spleen cDNA and cloned a pCI backbone vector.
The Gα16gustducin44 sequence was generated by swapping the last 132 nucleotides of the G α16 with the corresponding terminal sequence of the Gα-gustducin [21] and was cloned in a pIRES-Puro plasmid. This vector was transfected in the Peakrapid cell line (ATCC reference: CRL-2828™; purchased from LGC Standards SARL, Molsheim, FRANCE), HEK293 cell line derivative, cultured in EMEM culture medium (reference BE12-136F; Lonza, Vervier, BELGIUM) supplemented with 10% of foetal bovine serum (Sigma-Aldrich, Bornem, Belgium) and 1 μg/ml of Puromycin to allow the selection of recombinant cell populations. Cell clones expressing the Gα16gustducin44 were selected and the clone presenting the best functional response of T2R38 to phenylthicarbamide was used for the study (see below).
(§2) The Peakrapid cell line expressing stably a chimeric Gα16gustducin44 G protein [21] was used. 40 000 cells were seeded in each well of a black/clear poly-D-lysine cellware pre-coated 96-well plate (Biocoat®, Becton-Dickinson, Erembodegem, Belgium) and transiently transfected with 50 ng of plasmid DNA containing the receptor sequence or not (empty vector) and with 50 ng of chaperone protein RTP4 per well. Forty hours after transfection, cells were incubated with the calcium-sensitive dye Fluo4 (Life Technologies, Oregon, USA) solubilized at 10 μg/ml in a buffer containing EMEM (150 mM NaCl, 5 mM KCl, 2 mM CaCl2, 1.2 mM MgCl2, 10 mM glucose), 10 mM HEPES, 0.01% (v/v) Pluronic F127, 0.1% (w/v) bovine serum albumin. After 1 h incubation at 37°C, cells were rinsed twice with the same buffer without Fluo4 and left in 50 μl buffer (prior ligand injection). Measurement were performed on a platform based on a motorized Axiobserver Z1 fluorescence microscope piloted by a Axiovision software (Zeiss, Jena, Germany) as described previously. For each selected well, images were taken 1 per second, during 30 seconds. 50 μl of the buffer containing the ligand twice concentrated was injected on the 2nd second of the time lapse record.
After time lapse record, the number of responding cells in each injected well was determined using ImageJ 1.34 (Rasband, W.S., ImageJ, National Institutes of Health, Bethesda, Maryland, USA, http://rsb.info.nih.gov/ij/1997-2004), and expressed as the percentage of the surface of a microscope field covered by activated cells with respect to the total surface of the field covered by confluent cells. Automated determination of the surface occupied by responding cells is easier to perform than a cell counting. The resulting percentage of positive surface provided a convenient estimation of the percentage of responding cells, as observed by comparing the percentage of positive surface and percentage of responsive cells determined by direct counting, in the same experiment. In agreement with the literature, the percentage of responding cells was proportional to the agonist concentration. During experiment in each plate, at least 2 wells were tested with phenylthiocarbamide (PTC) at 0.1 mM, which is one of the best characterized agonist of T2R38 in the literature. The activation of T2R38 by PTC allows normalization of the result of other tested molecules. The results were thus expressed as the percentage of PTC activation. […]

[1] = system: mock transfected cells (empty vector); assay: Single cell calcium imaging, control: mock transfected (empty vector) Peakrapid cells; format: cell-based, human
Description: as §2
(§3) After time lapse record, the number of responding cells in each injected well was determined using ImageJ 1.34 (Rasband, W.S., ImageJ, National Institutes of Health, Bethesda, Maryland, USA, http://rsb.info.nih.gov/ij/1997-2004), and expressed as the percentage of the surface of a microscope field covered by activated cells with respect to the total surface of the field covered by confluent cells. Automated determination of the surface occupied by responding cells is easier to perform than a cell counting. The resulting percentage of positive surface provided a convenient estimation of the percentage of responding cells, as observed by comparing the percentage of positive surface and percentage of responsive cells determined by direct counting, in the same experiment. In agreement with the literature, the percentage of responding cells was proportional to the agonist concentration. During experiment in each plate, at least 2 wells were tested with phenylthiocarbamide (PTC) at 0.1 mM, which is one of the best characterized agonist of T2R38 in the literature. The activation of T2R38 by PTC allows normalization of the result of other tested molecules. The results were thus expressed as the percentage of PTC activation. In scaling calcium imaging assays using this latter receptor, concentration-responses curves were performed and data were fitted to a four parameter logistic equation: y=min+ (max− min)/1+10 ^(logEC50−x)nH . Min and max are the minimum and the maximum values of the percentage of cell-activated surface respectively, y is the percentage of cell-activated surface at the x concentration and nH is the Hill coefficient.

T2R38 AVI = biological target: T2, T2R38 AVI (Homo sapiens, UniProt P59533, A262V); assay: Single cell calcium imaging, control: cells transfected with nonfunctional allele (AVI) of T2R38; format: cell-based; conditions: T2R38 AVI, individual values of experiments 1-5
T2 construct: leader: first 45 amino acids of rat somatostatin receptor subtype 3 (SSTR3) (N); expressed in transfected cells; host or cells: Peakrapid cells (HEK293 derivative, ATCC CRL-2828) stably expressing Galpha16gustducin44, co-transfected with human RTP4
T2 sequence (P59533 1-333 A262V): T1 sequence (P59533 1-333 A49P/I296V) with P49A, A262V, V296I
Description: as §1, §2, §3

[2] = 2 méthyl propanal 0.000398107, log10[ ] -3.4
[3] = 2 méthyl propanal 0.00251189, log10[ ] -2.6
[4] = 2 méthyl propanal 0.0158489, log10[ ] -1.8
[5] = 2mM (no organic solvent), listed as HSL-C4
[6] = 2mM in DMSO 1.5%, listed as HSL-C4
[7] = 2mM in EtOH 0,4%, listed as HSL-C4

CC(C)C=O [2-methylpropanal]
agonist activity on T2R38 (in words) (T2R38): able to specifically trigger this receptor | percentage of surface covered by activated cells (T2R38; [2]): 0.29% and 0.95% and 0.86% and 0.39% and 1.39% and 0.60% and 1.13% and 1.16% | percentage of surface covered by activated cells (T2R38; [3]): 1.62% and 0.54% and 2.22% and 1.87% and 1.50% and 1.18% and 5.46% and 4.93% | percentage of surface covered by activated cells (T2R38; [4]): 36.19% and 28.82% and 26.57% and 24.12% and 23.76% and 32.56% and 40.19% and 33.93% | response of T2R38 PAV transfected cells (S7_fig raw data) (T2R38; listed as 2 méthyl propanal): 27% and 16% and 28% and 14% (2×) and 8.51% | EC50 (T2R38; concentration-response curve, read-out: EC50): 11 mM | logEC50 (T2R38; given in the concentration-response curve): -1.97 | Emax (% of positive control) (T2R38; percentage of the response elicited by 0.1 mM PTC): 163 % of positive control | percentage of surface covered by activated cells [1, 2]: 0.75% and 0.87% and 0.24% and 0.23% and 0.25% and 0.37% and 0.61% | percentage of surface covered by activated cells [1, 3]: 0.28% and 0.65% and 0.25% and 0.23% and 1.49% and 1.18% and 0.31% and 0.37% | percentage of surface covered by activated cells ([1]; 2 méthyl propanal 0.00398107, log10[ ] -2.4): 0.33% and 0.26% and 0.12% and 0.41% and 0.13% and 0.42% and 0.48% and 0.87% | percentage of surface covered by activated cells ([1]; 2 méthyl propanal 0.00630957, log10[ ] -2.2): 0.35% and 0.63% and 0.24% and 0.06% and 0.59% and 0.25% and 0.34% and 0.85% | percentage of surface covered by activated cells ([1]; 2 méthyl propanal 0.01, log10[ ] -2): 0.73% and 0.27% and 0.89% and 1.38% and 0.42% and 1.05% and 1.19% and 0.79% | percentage of surface covered by activated cells [1, 4]: 1.86% and 0.33% and 2.42% and 3.28% and 1.11% and 1.32% and 3.65% and 5.14% | response of T2R38 AVI transfected cells (S7_fig raw data) (T2R38 AVI; listed as 2 méthyl propanal): 1% (2×) and 2% and 1.41% and 0.831% and 1.15%

CSSC [diméthyldisulfide]
response of T2R38 PAV transfected cells (S7_fig raw data) (T2R38): 18% and 12% (2×) and 2.83% and 2.52% and 3.72% and 7.4% and 9% and 2% and 0.585% | response of T2R38 AVI transfected cells (S7_fig raw data) (T2R38 AVI): 0.145% and 0.026% and 1.18% and 0.463% and 1.36% and 1.27% and 1.33% and 1.1% and 0.0987% and 0.185%

O=C1CCCO1 [γ-butyrolactone]
agonist activity on T2R38 (in words) (T2R38): able to specifically trigger this receptor | EC50 (T2R38; EC50, concentration-response curve): 12 mM | response of T2R38 PAV transfected cells (S7_fig raw data) (T2R38; listed as g-butyrolactone): 18% and 20% and 13% and 12% (2×) and 14% and 11% (2×) and 9.52% and 15% | EC50 (T2R38; logEC50, printed in the picture of the concentration-response curve): 12 mM | Emax (T2R38; read-out: Emax (% of positive control)): 33% | response of T2R38 AVI transfected cells (S7_fig raw data) (T2R38 AVI; listed as g-butyrolactone): 0.0283% and 0.0479% and 0.129% and 0.148% and 0.16% and 0.208% and 0.188% and 0.394% and 0.0477% and 0.222%

CCCC(=O)N[C@H]1CCOC1=O [C4HSL, N-butyryl-L-homoserine lactone, reference compound]
agonist activity on T2R38 (in words) (T2R38): are not agonists of the receptor in our hands | percentage of surface covered by activated cells (T2R38; [5]): 0.38% and 0.93% and 0.34% and 0.53% and 0.11% and 0.17% | percentage of surface covered by activated cells (T2R38; [6]): 6.92% and 3.48% and 5.97% and 2.36% and 9.56% and 4.46% | percentage of surface covered by activated cells (T2R38; [7]): 0.27% and 1.95% and 2.21% and 0.24% and 0.29% and 1.29% | average calcium response, % of the one induced by 0.1 mM of PTC (T2R38; dissolved in DMSO 1.5% (209 mM)): 33% | specific activation of T2R38 (T2R38): did not trigger a specific activation of T2R38 | specific activation of T2R38 (T2R38; listed as HSLC4): remained without effect on the receptor | response of T2R38 (T2R38): did not elicit a response of T2R38 | response of T2R38 (T2R38; listed as HSLC4): remained without effect on the receptor | percentage of surface covered by activated cells [1, 5]: 0.08% and 2.07% and 0.35% and 0.32% and 0.65% and 0.13% | percentage of surface covered by activated cells [1, 6]: 0.56% and 1.82% and 1.06% and 0.36% and 0.33% and 0.98% | percentage of surface covered by activated cells [1, 7]: 0.40% and 0.69% and 0.43% and 0.56% and 1.49% and 0.68%
